Data reported in ChEMBL document CHEMBL6134779, “Design of Proteolytic-Resistant Antifungal Peptides by Utilizing Minimum d-Amino Acid Ratios” (J Med Chem, 2024).
Values after ≈ are worked out from the molar mass of the structure shown. Active and inactive are the calls of the source. The rule behind the calls is not given here.

Columns and labels:
[1] = Stability of the compound in CaCl2 assessed as change in secondary structure by CD spectra analysis; type: physicochemical
Candida albicans [2] = assay: Antifungal activity against Candida albicans CGMCC 2.2086 infected in C57BL/6 mouse keratitis model assessed as increase in ocular clarity at 5 mg/ml administered as 10 uL eye drop every 5 mins for first 1 hr and every 30 mins for next 7 hrs; type: functional, organism-based; settings: route ou, time 8.0 hrs
Candida albicans [3] = assay: Antibiofilm activity against Candida albicans CGMCC 2.2086 assessed as inhibition of biofilm formation at antifungal MIC measured after 48 hrs by crystal violet staining based assay; type: functional
[4] = Proteolytic stability of the compound assessed as trypsin (unknown origin)-mediated drug degradation measured after 8 hrs by 16.5% tricine-SDS-PAGE analysis; type: ADME; settings: human
Candida albicans [5] = assay: Antifungal activity against Candida albicans SP3903 assessed as inhibition of fungal growth incubated for 48 hrs; type: functional
Candida albicans [6] = assay: Antifungal activity against Candida albicans CGMCC 2.2086 assessed as inhibition of fungal growth incubated for 48 hrs in presence of FeCl3; type: functional
Candida albicans [7] = assay: Antifungal activity against Candida albicans CGMCC 2.2086 assessed as inhibition of fungal growth incubated for 48 hrs in presence of MgCl2; type: functional
Candida albicans [8] = assay: Antifungal activity against Candida albicans CGMCC 2.2086 assessed as inhibition of fungal growth incubated for 2 to 4 hrs in presence of 100% serum; type: functional, organism-based; settings: time 2-4 hrs
Candida albicans [9] = assay: Induction of morphological changes in Candida albicans CGMCC 2.2086 assessed as cell content leakage at 1X MIC measured after 60 mins by TEM analysis; type: functional, organism-based
[10] = Stability of the compound in KCl assessed as change in secondary structure by CD spectra analysis; type: physicochemical
Candida albicans [11] = assay: Antifungal activity against Candida albicans CGMCC 2.2086 assessed as inhibition of fungal growth incubated for 48 hrs in presence of NaCl; type: functional
[12] = Stability of the compound in ZnCl2 assessed as change in secondary structure by CD spectra analysis; type: physicochemical
[13] = Stability of the compound in NaCl assessed as change in secondary structure by CD spectra analysis; type: physicochemical
Candida albicans [14] = assay: Antifungal activity against Candida albicans CGMCC 2.2086 assessed as inhibition of fungal growth incubated for 48 hrs in presence of NH4Cl; type: functional
[15] = Stability of the compound in MgCl2 assessed as change in secondary structure by CD spectra analysis; type: physicochemical
[16] = Proteolytic stability of the compound assessed as protease K (unknown origin)-mediated drug degradation measured after 8 hrs by 16.5% tricine-SDS-PAGE analysis; type: ADME; settings: human
Candida albicans [17] = assay: Induction of Candida albicans CGMCC 2.2086 cell wall permeabilization by NPN probe based assay; type: functional, organism-based; settings: dose 1-128 µM
Candida albicans [18] = assay: Antifungal activity against Candida albicans 56452 assessed as inhibition of fungal growth incubated for 48 hrs; type: functional
Candida albicans [19] = assay: Induction of morphological changes in Candida albicans CGMCC 2.2086 assessed as appearance of cell pits at 1X MIC measured after 60 mins by SEM analysis; type: functional, organism-based
Candida albicans [20] = assay: Antifungal activity against Candida albicans CGMCC 2.2086 assessed as inhibition of fungal growth incubated for 48 hrs in presence of KCl; type: functional
Candida albicans [21] = assay: Antifungal activity against Candida albicans 17546 assessed as inhibition of fungal growth incubated for 48 hrs; type: functional
Candida albicans [22] = assay: Antifungal activity against Fluconazole-resistant Candida albicans 58288 assessed as inhibition of fungal growth incubated for 48 hrs; type: functional
[23] = Proteolytic stability of the compound assessed as chymotrypsin (unknown origin)-mediated drug degradation measured after 8 hrs by 16.5% tricine-SDS-PAGE analysis; type: ADME; settings: human
Candida albicans [24] = assay: Antifungal activity against Candida albicans CGMCC 2.2086 assessed as inhibition of fungal growth incubated for 48 hrs; type: functional
Candida albicans [25] = assay: Induction of Candida albicans CGMCC 2.2086 cell wall permeabilization at 16 uM by NPN probe based assay relative to control; type: functional
Candida albicans [26] = assay: Antifungal activity against Candida albicans 14936 assessed as inhibition of fungal growth incubated for 48 hrs; type: functional
Candida albicans [27] = assay: Antifungal activity against Fluconazole-resistant Candida albicans 56214 assessed as inhibition of fungal growth incubated for 48 hrs; type: functional
[28] = Cytotoxicity against porcine IPEC-J2 cells assessed as reduction in cell viability at 128 uM incubated for 4 hrs by MTT assay; type: toxicity, cell-based, Sus scrofa; settings: pig, ipec-j2, 4 h
[29] = Proteolytic stability of the compound assessed as chymotrypsin (unknown origin)-mediated drug degradation measured after 8 hrs by RP-HPLC analysis; type: ADME; settings: human
Candida albicans [30] = assay: Antifungal activity against Candida albicans CGMCC 2.2086 infected in C57BL/6 mouse keratitis model assessed as reduction in mycelia in the eyes at 5 mg/ml administered as 10 uL eye drop every 5 mins for first 1 hr and every 30 mins for next 7 hrs by Schiff staining based assay; type: functional, organism-based; settings: route ou, time 8.0 hrs
Candida albicans [31] = assay: Antifungal activity against Candida albicans CGMCC 2.2086 assessed as inhibition of fungal growth incubated for 48 hrs in presence of ZnCl2; type: functional
Candida albicans [32] = assay: Antifungal activity against Candida albicans CGMCC 2.2086 infected in C57BL/6 mouse keratitis model assessed as increase in ocular transparency at 5 mg/ml administered as 10 uL eye drop every 5 mins for first 1 hr and every 30 mins for next 7 hrs; type: functional, organism-based; settings: route ou, time 8.0 hrs
Candida parapsilosis = assay: Antifungal activity against Candida parapsilosis CGMCC 2.3989 assessed as inhibition of fungal growth incubated for 48 hrs; type: functional; settings: Lodderomyces parapsilosis
Cell membrane = assay: Induction of cytoplasmic membrane depolarization in Candida albicans CGMCC 2.2086 at 0.5 to 2X MIC measured up to 3600 secs by DISC3-5 dye based fluorescence assay; type: subcellular; settings: time <= 3600.0 sec
Candida albicans [33] = assay: Antifungal activity against Candida albicans SP3931 assessed as inhibition of fungal growth incubated for 48 hrs; type: functional
Candida albicans [34] = assay: Antifungal activity against Candida albicans SP3902 assessed as inhibition of fungal growth incubated for 48 hrs; type: functional
Candida albicans [35] = assay: Antifungal activity against Candida albicans CGMCC 2.2086 assessed as inhibition of fungal growth incubated for 2 hrs in presence of trypsin; type: functional, organism-based
[36] = Stability of the compound in FeCl3 assessed as change in secondary structure by CD spectra analysis; type: physicochemical
Candida albicans [37] = assay: Induction of ROS generation in Candida albicans CGMCC 2.2086 measured after 60 mins by […] dye based fluorescence assay; type: functional, organism-based; settings: dose 0.5-128 µM
HEK293 = assay: Cytotoxicity against HEK293 cells assessed as cell death at 64 uM measured after 8 hrs by calcein-AM and propidium iodide Live/Dead dye staining assay; type: toxicity, cell-based; settings: human, hek293, 8 h
Candida albicans [38] = assay: Induction of morphological changes in Candida albicans CGMCC 2.2086 assessed as appearance of cell wrinkles at 1X MIC measured after 60 mins by SEM analysis; type: functional, organism-based
Candida albicans [39] = assay: Antifungal activity against Candida albicans SP3876 assessed as inhibition of fungal growth incubated for 48 hrs; type: functional
Candida albicans [40] = assay: Fungicidal activity against Candida albicans CGMCC 2.2086 at 1X MIC measured within 90 mins by time-kill assay; type: functional, organism-based

CC[C@H](C)[C@H](N)C(=O)N[C@H](C(=O)N[C@H](CCCNC(=N)N)C(=O)N[C@@H](CCCNC(=N)N)C(=O)N[C@@H](Cc1c[nH]cn1)C(=O)N[C@H](C(=O)N[C@H](C(=O)N[C@H](C(=O)N[C@H](C(=O)N[C@H](CCCNC(=N)N)C(=O)N[C@@H](CCCNC(=N)N)C(=O)N[C@@H](Cc1c[nH]cn1)C(=O)N[C@H](C(=O)N[C@H](C(=O)N[C@H](C(=O)N[C@H](C(=O)N[C@H](CCCNC(=N)N)C(=O)N[C@@H](CCCNC(=N)N)C(=O)N[C@@H](Cc1c[nH]cn1)C(=O)N[C@H](C(=O)N[C@H](C(N)=O)[C@@H](C)CC)[C@@H](C)CC)[C@@H](C)CC)[C@@H](C)CC)[C@@H](C)CC)[C@@H](C)CC)[C@@H](C)CC)[C@@H](C)CC)[C@@H](C)CC)[C@@H](C)CC)[C@@H](C)CC
Stability [1]: Stable | Activity (Candida albicans [2]): Active | inhibition (INH) (Candida albicans [3]): 90% | Stability [4]: Stable | MIC95 (Candida albicans [5]): 2 µM (≈ 5.45 µg/mL) | MIC95 (Candida albicans [6]): 8 µM | MIC95 (Candida albicans [7]): 4 µM | growth inhibition (GI) (Candida albicans [8]): Active; No Alterations In The Antimicrobial Activity Was Observed In Presence Of Serum | Activity (Candida albicans [9]): Active | Stability [10]: Stable | MIC95 (Candida albicans [11]): 16 µM | Stability [12]: Stable | Stability [13]: Unstable | MIC95 (Candida albicans [14]): 2 µM | Stability [15]: Stable | Stability [16]: Stable | Activity (Candida albicans [17]): Dose-dependent-effect | MIC95 (Candida albicans [18]): 2 µM (≈ 5.45 µg/mL) | Activity (Candida albicans [19]): Active | MIC95 (Candida albicans [20]): 4 µM | MIC95 (Candida albicans [21]): 4 µM (≈ 10.9 µg/mL) | MIC95 (Candida albicans [22]): 2 µM (≈ 5.45 µg/mL) | Stability [23]: Stable | MIC95 (Candida albicans [24]): 4 µM (≈ 10.9 µg/mL) | Activity (Candida albicans [25]): >100% | MIC95 (Candida albicans [26]): 4 µM (≈ 10.9 µg/mL) | MIC95 (Candida albicans [27]): 4 µM (≈ 10.9 µg/mL) | Activity [28]: Toxic | Stability [29]: Stable | Activity (Candida albicans [30]): Active; Mycelia In The Eyes Was Either Absent Or Minimal | MIC95 (Candida albicans [31]): 4 µM | Activity (Candida albicans [32]): Active | MIC95 (Candida parapsilosis): 4 µM (≈ 10.9 µg/mL) | Activity (Cell membrane): Active | MIC95 (Candida albicans [33]): 2 µM (≈ 5.45 µg/mL) | MIC95 (Candida albicans [34]): 2 µM (≈ 5.45 µg/mL) | Activity (Candida albicans [35]): Active | Stability [36]: Stable | Activity (Candida albicans [37]): Dose-dependent-effect | Activity (HEK293): Toxic | Activity (Candida albicans [38]): Active | MIC95 (Candida albicans [39]): 2 µM (≈ 5.45 µg/mL) | Activity (Candida albicans [40]): Active; Eliminated All Fungal Organisms
